Laboratory results reported in paper PMC9104013, “Role of Polyamine-Induced Dimerization of Antizyme in Its Cellular Functions” (International Journal of Molecular Sciences, 2022).

What was measured:
[1] = system: transgenic rats with activated polyamine catabolism; set-up: method as in PMID 12181316, PMID 19956991, PMID 20453551; details: cited from earlier work
[2] = system: hair follicle cycle; set-up: method as in PMID 19956989; details: mice; cited from earlier work
[3] = system: OAZ1-overexpressing DU145 cells; assay: Uptake of Spd and its analogues in OAZ1-overexpressing DU145 cells; format: cell-based; details: DOX 250 ng/mL 24 h, compounds 100 µM, 6 h
Experimental: Figure 3 2-MeSpd is the weakest inducer of OAZ1 synthesis and the weakest downregulator of ODC in DU145 cells. (A) Uptake of Spd and its analogues in CHX-treated DU145 cells. After 2 h preincubation with CHX (100 µg/mL), the compounds (100 µM) were added, and incubation continued for 4 h before the analysis of the intracellular analogue concentration. (B) Uptake of Spd and its analogues in OAZ1-overexpressing DU145 cells. OAZ1 was induced by 24 h preincubation with DOX (250 ng/mL). The compounds (100 µM) were added for further 6 h before the analysis of intracellular analogue concentration. (C) Effect of Spd and the analogues on OAZ1 protein levels in DU145 cells. The cells were incubated for 4 h with 100 μM analogues in the presence of the proteasomal inhibitor, MG132 (25 μM). (D) Effect of Spd and the analogues on ODC activity in DU145 cells. […]
Polyamines were measured with HPLC according to the published method. Acid-precipitated pellets were dissolved to 0.1 M NaOH, and the amount of DNA was measured using the PicoGreen reagent (Invitrogen) according to manufacturer’s instructions using dilutions of calf thymus DNA (Sigma-Aldrich) as standard curve. Protein concentrations were measured using Bio-Rad protein kit with dilutions of bovine serum albumin (Bio-Rad, Hercules, CA, USA) as standards. ODC activities were measured from the cytosolic fractions as described earlier. […]

[4] = system: polyamine uptake in OAZ1-overexpressing DU145 cells; assay: [14C]-Put and -Spd uptake in OAZ1-overexpressing DU145 cells; format: cell-based; details: DFMO 5 mM 3 days, DOX 1 μg/mL 2 days, analogue 100 μM 4 h with APCHA 50 μM, AG 1 mM; 20 min uptake
Experimental: OAZ1-overexpressing DU145 cells were plated onto 6-well plates and incubated overnight. The cells were first treated with DFMO (5 mM) for 3 days, after which DOX (1 μg/mL) was added for further 2 days to induce OAZ1 overexpression. Then, AG (1 mM), APCHA (50 μM), and Spd/analogue (100 μM) were added for 4 h. The plates were washed with warm DMEM and incubated for 20 min in [^14C]-Put or [^14C]-Spd labeling mix (10 μM Put/Spd, specific activity 25 mCi/mmol, in DMEM). The plates were washed twice with ice-cold PBS and lysed to 0.5 mL of 0.1 M NaOH. An aliquot was taken for measurement of ^14C radioactivity, and the counts were normalized to total protein in the sample.

[5] = biological target: T1, ODC (Homo sapiens, UniProt P11926); assay: In vitro effect of Spd and its analogues on ODC activity in cytosolic extract; format: biochemical; details: 1 mM, ODC-enriched DU145 cell sample, 30 min, +37 °C
T1 construct: ODC-enriched lysate was prepared from subconfluent DU145 cells 6 h after medium change; endogenous in cells; host or cells: DU145 cells (cytosolic extract)
T1 sequence (P11926 1-461): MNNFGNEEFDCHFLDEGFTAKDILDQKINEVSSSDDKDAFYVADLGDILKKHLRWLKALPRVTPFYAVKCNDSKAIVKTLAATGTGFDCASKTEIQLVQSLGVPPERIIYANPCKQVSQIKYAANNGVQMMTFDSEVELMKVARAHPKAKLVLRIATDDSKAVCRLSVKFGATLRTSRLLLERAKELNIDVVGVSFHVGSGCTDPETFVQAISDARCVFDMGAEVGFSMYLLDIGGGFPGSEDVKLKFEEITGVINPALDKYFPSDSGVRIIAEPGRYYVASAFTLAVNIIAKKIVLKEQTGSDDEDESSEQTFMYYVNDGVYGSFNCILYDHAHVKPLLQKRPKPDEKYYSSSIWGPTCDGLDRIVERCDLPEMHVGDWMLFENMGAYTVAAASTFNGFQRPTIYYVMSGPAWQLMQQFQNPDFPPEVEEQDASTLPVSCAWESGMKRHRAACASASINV
Experimental: ODC-enriched lysate was prepared from subconfluent DU145 cells 6 h after medium change by lysing the cells in buffer containing 25 mM Tris-HCl, pH 7.4, 1 mM DTT, and 0.01% Tween-80. OAZ1-enriched lysate was prepared from OAZ1-overexpressing DU145 cells in the same buffer. The lysate was cleared by centrifugation, and the endogenous polyamines were removed by ultrafiltration through 3K-cutoff filter and washing twice with lysis buffer. In experiment 1, ODC-enriched cytoplasmic extract (~100 μg of total protein) was incubated for 30 min at +37 °C in the presence of 1 mM Spd or analogues before ODC activity assay. In experiment 2, ODC-enriched cytoplasmic extract (~100 μg of total protein) was incubated for 30 min at +37 °C with OAZ1-enriched cytoplasmic extract (~100 μg of total protein) in the presence of 1 mM Spd or analogues before ODC activity assay.

CC(N)CCNCCCCN (stereo not shown) [1-MeSpd]
Acute pancreatitis [1]: prevented acute pancreatitis | Liver regeneration [1]: restored liver regeneration | Hair follicle cycle [2]: activate the hair follicle cycle

CC(CN)CNCCCCN (stereo not shown) [2-MeSpd]
Uptake upon DOX-induced expression of OAZ1 [3]: reduced the uptake | Downregulation of [^14C]-Put uptake [4]: weakest downregulation | Downregulation of [^14C]-Spd uptake [4]: weakest downregulation

NCCCCNCCCN [Spd, spermidine]
Effect of direct addition on ODC activity in vitro [5]: did not affect ODC activity
